Source: publication PMC2806825, “The Expression Level of CB1 and CB2 Receptors Determines Their Efficacy at Inducing Apoptosis in Astrocytomas” (PLoS ONE, 2010)

Tests used:
CB1-low DBT cells [1] = experiment: Cell viability by WST-1 conversion, CB1-low DBT cells; format: cell-based, mouse
Description: (§1) Cells were expanded in 24-well plates (10^5 cells per well) in culture media (0.5 ml per well). Once they reached ∼70% confluence, they were rinsed with PBS and kept for an additional 24 hrs in serum-deprived media, at which time drugs or vehicle (DMSO, 0.1%) prepared in 50 µl serum-deprived media were directly added to each well. After 1, 3, or 5 days, cell viability was assessed using the Cell Proliferation Reagent WST-1 (Roche, Indianapolis, IN). Briefly, WST-1 reagent (50 µl) was added to each well for 4 hrs at 37°C with 5% CO2, and then WST-1 products were read at 450 nm using Packard SpectraCount™. Apoptosis was assessed using PI and annexin V (Pacific Blue™, Invitrogen). Briefly, cells were detached using trypsin, rinsed with 25°C PBS and resuspended to a density of 10^6 cells per ml of annexin-binding buffer (10 mM HEPES, 140 mM NaCl, 2.5 mM CaCl2, pH 7.4). PI (100 ng) and annexin V were added to 100 µl of cell suspension and incubated at 25°C for 30 min. Additional annexin-binding buffer was added (400 µl) and samples were sorted (10,000 events) on a LSR II flow cytometer (BD Biosciences, San Jose, CA) and the data analyzed using FlowJo (Tree Star, Inc., Ashland, OR).

wild type DBT cells = experiment: Cell viability by WST-1 conversion, wild type DBT cells; format: cell-based, mouse
Description: as §1

DBT cells = experiment: Cell viability by WST-1 conversion, wild type DBT cells and DBT subclones; format: cell-based, mouse
Description: as §1

CB1 receptors = molecular target: T1, CB1 receptors (Mus musculus, UniProt P47746); experiment: Radioligand saturation binding with [3H]CP-55,940 on membranes of CB1-expressing DBT subclones; settings: mean of 3–5 determinations
T1 construct: expressed in transfected cells
T1 sequence (P47746 whole entry): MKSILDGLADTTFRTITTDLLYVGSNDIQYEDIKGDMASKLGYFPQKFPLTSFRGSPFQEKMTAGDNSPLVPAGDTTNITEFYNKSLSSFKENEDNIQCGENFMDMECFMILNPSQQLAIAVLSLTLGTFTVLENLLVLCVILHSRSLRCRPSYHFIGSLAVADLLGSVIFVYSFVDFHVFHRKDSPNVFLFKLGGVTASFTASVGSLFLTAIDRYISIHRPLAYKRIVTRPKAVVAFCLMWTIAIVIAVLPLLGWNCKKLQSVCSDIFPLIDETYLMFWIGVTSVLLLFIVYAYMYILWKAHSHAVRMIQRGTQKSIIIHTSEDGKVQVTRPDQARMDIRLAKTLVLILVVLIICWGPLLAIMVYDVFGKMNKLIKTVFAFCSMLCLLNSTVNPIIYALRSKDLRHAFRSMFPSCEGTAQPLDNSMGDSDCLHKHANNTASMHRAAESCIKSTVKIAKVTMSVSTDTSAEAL
Description: (§2) Cells (10^6) were expanded in 10 cm dishes using 10 ml culture media. Once they reached ∼70% confluence, they were rinsed with PBS and kept for an additional 24 hrs in serum-deprived media, which is composed of DMEM+GlutaMAX™-I supplemented with fatty acid free bovine serum albumin (0.1%, BSA, Sigma-Aldrich, St. Louis, MO) and insulin-transferin-sodium selenite liquid media (1×, ITS, Sigma-Aldrich). For qPCR, media was removed and cells washed once with 10 ml PBS, then cells were scraped and total RNA isolated using RNeasy extraction kit (QIAGEN) according to the manufacturer's instructions. The following primer and TaqMan probe sequences were generated using Primer Express (Perkin-Elmer Applied Biosystems, Foster City, CA): mCB1 forward, 5′-[…]-3′, reverse, 5′-[…]-3′, probe, 5′-([…])-3′; mCB2 forward, 5′-[…]-3′, reverse, 5′-[…]-3′, probe, 5′-([…])-3′. Total RNA from each sample (2.5 ng) was reverse transcribed in the same 10 µl quantitative PCR reaction mix using the Brilliant Single-Step Quantitative RT-PCR Core Reagent Kit (Stratagene, La Jolla, CA). Combined reactions were carried out on a Stratagene Mx3000P Real-Time Detection System using the following protocol: 30 min single-strand synthesis reaction at 45°C; 40-cycle, two-step PCR amplification (15 sec at 95°C followed by 1 min at 56°C). Duplicate reactions with and without reverse transcriptase were run for each sample. For radioligand binding, media was removed and cells washed once with 10 ml PBS. Cells were scraped in 1 ml buffer (50 mM Tris-HCl, 3 mM MgCl2, 1 mM EDTA, pH 7.4) and pulse homogenized 10 sec using PRO200 tissue homogenizer (PRO Scientific, Oxford, CT). Crude membrane preparations were generated by centrifugation of cell homogenates for 20 min at >10,000×g. Cell pellets were resuspended in buffer containing BSA (0.1%, fatty acid free) and 50 µg protein added to siliconized glass tubes for assay. […] Radioactivity on filters was measured using scintillation counter.

wild-type DBT cells [2] = experiment: Radioligand binding with [3H]CP-55,940 on wild-type DBT cells; design: species or system mouse
Description: as §2, with “56°C).” for “56°C). Duplicate reactions with and without reverse transcriptase were run for each sample. For radioligand binding, media was removed and cells washed once with 10 ml PBS. Cells were scraped in 1 ml buffer (50 mM Tris-HCl, 3 mM MgCl2, 1 mM EDTA, pH 7.4) and pulse homogenized 10 sec using PRO200 tissue homogenizer (PRO Scientific, Oxford, CT). Crude membrane preparations were generated by centrifugation of cell homogenates for 20 min at >10,000×g. Cell pellets were resuspended in buffer containing BSA (0.1%, fatty acid free) and 50 µg protein added to siliconized glass tubes for assay.”

CB2 receptors [3] = molecular target: T2, CB2 receptors (Mus musculus, UniProt P47936); experiment: Radioligand saturation binding with [3H]CP-55,940 on membranes of CB2-expressing DBT subclones; settings: mean of 3–5 determinations
T2 construct: expressed in transfected cells
T2 sequence (P47936 whole entry): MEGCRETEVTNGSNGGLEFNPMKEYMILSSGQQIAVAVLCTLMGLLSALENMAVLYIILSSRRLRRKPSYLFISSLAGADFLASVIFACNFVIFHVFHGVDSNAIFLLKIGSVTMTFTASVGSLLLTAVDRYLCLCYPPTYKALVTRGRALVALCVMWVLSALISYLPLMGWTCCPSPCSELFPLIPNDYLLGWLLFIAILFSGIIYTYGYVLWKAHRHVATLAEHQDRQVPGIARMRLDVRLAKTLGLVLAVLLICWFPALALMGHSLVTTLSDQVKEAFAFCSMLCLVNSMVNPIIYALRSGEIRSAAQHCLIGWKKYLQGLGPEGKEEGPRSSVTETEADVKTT
Description: as §2

CB2 receptors [4] = molecular target: T2, CB2 receptors; experiment: ERK1/2 phosphorylation by Western blot in CB2-expressing DBT subclones; format: cell-based
Description: (§3) Cells were expanded in Costar 24-well plates (10^5 cells per well) in culture media (0.5 ml per well). Once they reached ∼70% confluence, they were rinsed with PBS and kept for an additional 24 hrs in serum-deprived media, at which time point drugs or vehicle (DMSO, 0.1%) prepared in 50 µl serum-deprived media were directly added to each well for the corresponding number of minutes. We chose to directly administer the drugs to cell culture media instead of replacing the media to avoid stress-induced increases in basal kinase phosphorylation (Figure S1). To quantify Erk phosphorylation, reactions were stopped by removing the media and adding NuPAGE® LDS sample buffer (300 µl, Invitrogen, Carlsbad, CA) supplemented with 2-mercaptoethanol (1%). An aliquot of each sample (20 µl) was loaded onto NuPAGE® 4–12% Bis-Tris pre-cast gels (Inivtrogen) and electrophoresed according to the manufacturer's instructions. Gels were electrophoretically transferred to P-nitrocellulose membrane (Millipore, Billerica, MA) and blocked in LiCOR blocking buffer (LiCOR, Lincoln, NE) for 1 hr at 25°C. Membranes were then incubated in blocking buffer containing rabbit anti-phospho-p44/42 antibody (1∶1000, Cell Signaling Technology, Inc., Danvers, MA) for 1 hr at 25°C. Membranes were washed 3 times with Tris (50 mM) buffered saline containing 0.1% Tween-20 (TBS-T). Membranes were then incubated in blocking buffer containing donkey anti-rabbit antibody conjugated to IRDye 800 (1∶7500, Rockland Immunochemicals, Inc., Gilbertsville, PA) for 1 hr at 25°C. Membranes were washed 3 times with TBS-T. The fluorescence intensity of each band was quantified using the LiCOR Odyssey. To quantify AKT, JNK, p38 and GSKβ phosphorylation, reactions were stopped by addition of NP40 cell lysis buffer (100 µl, Invitrogen). Substrate phosphorylation was quantified using a Biosource Multiplex Bead Immunoassay kit (Invitrogen) according to the manufacturer's instructions and using a Luminex 100™ instrument (Luminex, Austin, TX).

CB2 receptors [5] = molecular target: T2, CB2 receptors; experiment: JNK and p38 phosphorylation by Luminex multiplex immunoassay in CB2-high DBT clone; format: cell-based; settings: 1 µM, lasted throughout 30 min incubation
Description: as §3, with “Gels were electrophoretically transferred to P-nitrocellulose membrane (Millipore, Billerica, MA) and blocked in LiCOR blocking buffer (LiCOR, Lincoln, NE) for 1 hr at 25°C. Membranes were then incubated in blocking buffer containing rabbit anti-phospho-p44/42 antibody (1∶1000, Cell Signaling Technology, Inc., Danvers, MA) for 1 hr at 25°C. Membranes were washed 3 times with Tris (50 mM) buffered saline containing 0.1% Tween-20 (TBS-T). Membranes were then incubated in blocking buffer containing donkey anti-rabbit antibody conjugated to IRDye 800 (1∶7500, Rockland Immunochemicals, Inc., Gilbertsville, PA) for 1 hr at 25°C.” left out

[6] = test system: AKT phosphorylation in wild type DBT cells; experiment: AKT phosphorylation in wild type DBT cells; format: cell-based, mouse; settings: 1 µM
Description: as §3, with “Gels were electrophoretically transferred to P-nitrocellulose membrane (Millipore, Billerica, MA) and blocked in LiCOR blocking buffer (LiCOR, Lincoln, NE) for 1 hr at 25°C. Membranes were then incubated in blocking buffer containing rabbit anti-phospho-p44/42 antibody (1∶1000, Cell Signaling Technology, Inc., Danvers, MA) for 1 hr at 25°C. Membranes were washed 3 times with Tris (50 mM) buffered saline containing 0.1% Tween-20 (TBS-T). Membranes were then incubated in blocking buffer containing donkey anti-rabbit antibody conjugated to IRDye 800 (1∶7500, Rockland Immunochemicals, Inc., Gilbertsville, PA) for 1 hr at 25°C.” left out

CB2 receptors [7] = molecular target: T2, CB2 receptors; experiment: AKT phosphorylation by Luminex multiplex immunoassay in CB2-expressing DBT subclones; format: cell-based; settings: for AKT phosphorylation: 1 µM
Description: as §3

wild-type DBT cells [8] = experiment: Apoptosis by propidium iodide and annexin V FACS, wild-type DBT cells; format: cell-based, mouse; settings: 10 µM
Description: as §1

CB1-low DBT cells [9] = experiment: Apoptosis by propidium iodide and annexin V FACS, CB1-low DBT cells; format: cell-based, mouse; settings: 1 µM
Description: as §1

GSK-3β phosphorylation = GSK-3β phosphorylation by Luminex multiplex immunoassay in DBT subclones; format: cell-based, mouse; settings: any of the subclones, throughout 30 min incubation; data not shown
Description: as §3, with “Gels were electrophoretically transferred to P-nitrocellulose membrane (Millipore, Billerica, MA) and blocked in LiCOR blocking buffer (LiCOR, Lincoln, NE) for 1 hr at 25°C. Membranes were then incubated in blocking buffer containing rabbit anti-phospho-p44/42 antibody (1∶1000, Cell Signaling Technology, Inc., Danvers, MA) for 1 hr at 25°C. Membranes were washed 3 times with Tris (50 mM) buffered saline containing 0.1% Tween-20 (TBS-T). Membranes were then incubated in blocking buffer containing donkey anti-rabbit antibody conjugated to IRDye 800 (1∶7500, Rockland Immunochemicals, Inc., Gilbertsville, PA) for 1 hr at 25°C.” left out

[10] = test system: ERK1/2 phosphorylation in wild-type DBT cells; experiment: ERK1/2 phosphorylation in wild-type DBT cells; format: cell-based, mouse; settings: 1 µM
Description: as §3, with “Gels were electrophoretically transferred to P-nitrocellulose membrane (Millipore, Billerica, MA) and blocked in LiCOR blocking buffer (LiCOR, Lincoln, NE) for 1 hr at 25°C. Membranes were then incubated in blocking buffer containing rabbit anti-phospho-p44/42 antibody (1∶1000, Cell Signaling Technology, Inc., Danvers, MA) for 1 hr at 25°C. Membranes were washed 3 times with Tris (50 mM) buffered saline containing 0.1% Tween-20 (TBS-T). Membranes were then incubated in blocking buffer containing donkey anti-rabbit antibody conjugated to IRDye 800 (1∶7500, Rockland Immunochemicals, Inc., Gilbertsville, PA) for 1 hr at 25°C.” left out

[11] = antagonist 3 µM added 10 min before CP, CB2 subclones

## Cc1c(C(=O)NN2CCCCC2)nn(-c2ccc(Cl)cc2Cl)c1-c1ccc(Cl)cc1 [SR141716A, 5-(4-chlorophenyl)-1-(2,4-dichlorophenyl)-4-methyl-N-(1-piperidyl)-1H-pyrazole-3-carboxamide]
CB1-low DBT cells [1]; antagonist 5 µM pretreatment, CB1-low DBT cells
  Effect on 1 µM CP-55,940-induced killing: blocked
Wild type DBT cells; antagonist 5 µM pretreatment, wild type DBT cells
  Effect on 10 µM CP-55,940-induced cell death: did not affect

## CCN(CC)CCCCN1c2ccccc2Oc2ccc(Cl)cc21.Cl [Inhibitor X]
DBT cells; 5 µM added 10 min before CP, DBT subclones normally resistant, 5 days
  Effect on killing by 1 µM CP-55,940 (WST-1): uncovered the ability of 1 µM CP-55,940 to kill
DBT cells; 5 µM, DBT subclones, 5 days
  Effect by itself on cell viability (WST-1): no effect

## CCCCCCC(C)(C)c1ccc([C@@H]2C[C@H](O)CC[C@H]2CCCO)c(O)c1 [[^3H]CP-55,940]
CB1 receptors; CB1-high subclone E5
  Kd: 0.7 nM
CB1 receptors; CB1-low subclone E3
  Kd: 0.8 nM
CB1 receptors; CB1-mid subclone E7
  Kd: 0.8 nM
wild-type DBT cells [2]
  Radioligand binding: no binding
CB2 receptors [3]; CB2-high subclone 1D6
  Kd: 0.6 nM
CB2 receptors [3]; CB2-low subclone 2G5
  Kd: 0.8 nM
CB2 receptors [3]; CB2-mid subclone 2H1
  Kd: 0.4 nM

## (−)-cis-3-[2-hydroxy-4-(1,1-dimethylheptyl)phenyl]-trans-4-(3-hydroxypropyl) cyclohexanol [CP-55,940]
DBT cells; 10 µM, wild type DBT cells and all six subclones, five days after treatment
  Cell death (WST-1): 35–90%
CB2 receptors [4]; 1 µM, 3 min, CB2-low, CB2-mid, CB2-high subclones
  ERK1/2 phosphorylation above vehicle-treated controls: significant increase
CB2 receptors [4]; 1 µM, CB2-expressing subclones
  Time of peak of ERK1/2 phosphorylation: 3 min
  Time of return of ERK1/2 phosphorylation to basal: 10 to 20 min
CB2 receptors [5]
  Phosphorylation state of JNK and p38: 150–170 % of basal
[6]
  AKT phosphorylation: did not increase
CB2 receptors [7]; CB2-high clone, during the entire 30 min incubation
  AKT phosphorylation: above 250 % of basal
CB2 receptors [7]; CB2-high subclone
  AKT phosphorylation: most pronounced increase
CB2 receptors [7]; CB2-low and CB2-mid subclones
  AKT phosphorylation: small, but significant increase
CB1-low DBT cells [1]; 1 µM, CB1-low DBT subclone, five days after treatment
  Cell death (WST-1): ~50%
CB1-low DBT cells [1]; CB1-low DBT cells, Figure 3c, read-out: EC50 of cell killing (WST-1)
  EC50: 560 nM
Wild type DBT cells; wild type DBT cells, Figure 3c, read-out: EC50 of cell death (WST-1)
  EC50: 5000 nM
wild-type DBT cells [8]; 3 days after treatment
  Cell death by apoptosis: 27%
wild-type DBT cells [8]; after five days
  Cell death by apoptosis: 78%
CB1-low DBT cells [9]; 3 days after treatment
  Cell death by apoptosis: 15%
CB1-low DBT cells [9]; after five days
  Cell death by apoptosis: 48%
GSK-3β phosphorylation
  Phosphorylation state of GSK-3β: did not significantly affect
[10]
  ERK1/2 phosphorylation: did not affect

## 5- (4-chloro-3- methyl- phenyl)-1- [(4- methylphenyl)methyl]- N-(1,3,3- trimethylnorbornan- 2- yl)- pyrazole- 3- carboxamide [SR144528]
CB2 receptors [4]; [11]
  Effect on CP-55,940 (1 µM)-induced ERK1/2 phosphorylation: significantly attenuated
CB2 receptors [7]; [11]
  Effect on CP-55,940 (1 µM)-induced AKT phosphorylation: antagonized

## COc1cccc(-c2cc(=O)c3ccccc3o2)c1N [PD98059]
CB1-low DBT cells [1]; inhibitor 10 µM pretreatment, CB1-low DBT cells
  Effect on 1 µM CP-55,940-induced killing: partially prevented
Wild type DBT cells; inhibitor 10 µM pretreatment, wild-type DBT cells
  Effect on 10 µM CP-55,940-induced killing: partially prevented
